US20090233372A1, “COMPOSITIONS, KITS AND METHODS FOR DETERMINING ETIOLOGY OF TRALI AND DETECTING PATIENTS AT RISK FOR THIS TRANSFUSION REACTION” (Bonfils Blood Center, priority 2008, published 2009)

How the values were obtained:
Format in all cases: cell-based
[1] = system: peripheral blood neutrophils; assay: Priming assay using fluorescent probe (DHR) for hydrogen peroxide, flow cytometry
Method: Hydrogen peroxide (H2O2) is another reactive oxygen species produced by neutrophils when the NADPH oxidase and associated respiratory burst are activated. H2O2 can be detected intracellularly by incubating cells with dihydrorhodamine (DHR). This non-fluorescent compound will be oxidized to rhodamine, a potent fluorophore, when H2O2 is generated by activated neutrophils. This assay can be used to detect enhancement of the fMLP stimulated respiratory burst. […] Isolated peripheral blood neutrophils are incubated with 50 μM DHR. After exposure to fMLP (1 μM) or PAF (1 μM) for 3 minutes and fMLP (1 μM), the cells are placed on ice and samples analyzed with the evaluation of 10,000 events on a BD Canto flow cytometer. […] When PAF is used to prime the fMLP response, the result is a marked increase in H2O2 production expressed as MCF (˜250 MCF units).
This assay has been further optimized for the following reagents: DHR, 50 μM with the best loading time of 1 minute. Optional concentration of fMLP is 1 μM and PAF 1 μM. The assay should be analyzed in a flow cytometer as soon as possible but may be delayed up to 4 hours after completion without jeopardizing the results. Finally, plasma itself quenches the fluorescence. As a result the priming assay on this platform requires exposure of the cells to buffer or test sample for priming (PAF, plasma, etc), a low speed centrifugation to pellet cells, resuspension of cells in DHR containing buffer, then stimulation with fMLP. Determination of MCF is by analysis of 20,000 events. FIG. 6 summarizes results, expressed as mean ±SEM, with this assay in four separate experiments. Resting cells with buffer present very low levels of H2O2 with an increase when resting cells are stimulated with fMLP. Plasma from Day 0 and 7 stored platelet concentrates has little effect in the absence of fMLP.

neutrophil oxidase = assay: Priming of the neutrophil oxidase / fMLP stimulated respiratory burst by biologically active compounds; conditions: added directly to the assay
Text: The priming activity of plasma specimens from various sources including patient samples and blood components has been described herein. The effects on priming by various dilutions may correlate with the concentration of biologically active compounds in the specimens. Many of these compounds are well characterized and their priming activities determined. […] Each has its own concentration dependent effects. […] Similar effects are seen with complement fragments (e.g., C5a), other biologically active lipids (e.g., leukotrienes), and other compounds (e.g., sCD40L). Antibodies to neutrophil antigens (e.g., HNA-3a) also can prime the oxidase enzyme system. All these agents may be detected in plasma from blood components implicated in TRALI or plasma from patients sustaining a TRALI reaction. All may be added directly to the assay and priming activity detected as described in other sections.

cytoplasts = assay: Cytoplast priming assay, superoxide anion measured as cytochrome c reduction; conditions: PAF 1 μM, fMLP 1 μM
Method: Cytoplasts are neutrophils which have been sedimented on a 20% Ficoll gradient at 77,000×g. Cytoplasts, are devoid of nucleus, granules and other subcellular organelles. Cytoplasts retain the ability for random and directed migration, phagocytosis of opsonized particles as well as activation of a respiratory burst and generation of reactive oxygen species. They can be frozen at −70° C. and thawed; the thawed cytoplasts can be used as targets for priming activity. The advantage is that cytoplasts would be readily available for assaying priming activity of biologic specimens (FIG. 1B, 113) in place of freshly isolated neutrophils from a healthy donor.

neutrophils = assay: Detection of priming by chemiluminescence (Diogenes probe); conditions: priming sample, then fMLP; FIG. 7 and FIG. 8
Method: A third assay makes use of energy from chemiluminescence to determine oxygen radical generation from activated neutrophils. In this reaction, neutrophils are incubated with the priming sample or buffer, then exposed to fMLP after addition of the chemiluminescent probe, Diogenes, and the energy released determined in a chemiluminescence reader. The optimal cell concentration is between 2.5×10^6 cells/ml and 5×10^6 cells/ml. The chemiluminescence is >90% SOD inhibitable and so detects superoxide anion. The optimal addition of diogene is 20 μl to provide specific determination of oxygen radicals released by the neutrophils respiratory burst. […] Buffer alone is included for control. […] As with fluorescence platform, plasma nonspecifically quenches the chemiluminescence. This can be circumvented with an extra wash step to remove plasma after incubating cells with the priming stimulus. The resultant assay is sensitive to the effect in stored blood products. […] The priming effect for PAF is presented for comparison. The results are expressed as mean ±SEM. This platform, using chemiluminescence, can be used to determine priming by biologic samples.

fMLP
mean channel fluorescence (H2O2 production) ([1]; fMLP 1 μM by itself, 50 μM DHR, FIG. 5): 45

TNF-alpha
priming of the fMLP stimulated respiratory burst (neutrophil oxidase): concentration dependent priming

platelet activating factor [PAF]
H2O2 production expressed as MCF ([1]; PAF 1 μM for 3 minutes, then fMLP 1 μM, 50 μM DHR, FIG. 5): ~250 MCF units | priming of the fMLP stimulated respiratory burst (H2O2, MCF) ([1]; priming sample, then fMLP, four separate experiments, FIG. 6): markedly enhanced | enhancement of the fMLP stimulated respiratory burst by priming (cytoplasts): 1.6 to 2.0 fold | priming of the fMLP stimulated chemiluminescence (RLUs) (neutrophils): higher level of relative light units (RLUs) as well as a more prolonged time course at maximal production

IL-8: cytokine/chemokine found in biologically active plasma samples
priming of the fMLP stimulated respiratory burst (neutrophil oxidase): concentration dependent priming
